“Also recorded” adds a separate entry of the source. Bridges are numbered along the chain shown (N, C = ends). The star is where a group is joined. Biotin = O=C1N[C@H]2[C@H](CS[C@H]2CCCCC(=O)*)N1
What was measured:
NADPH oxidase = tested on: NADPH oxidase; parameters: method as in 8 sources, one per row (each row's own in cited_ref): ref Shpungin et al., [1989] ||| ref Bellavite et al., [1983]; Gabig and Lefker, [1984] ||| ref Pick et al., [1987] ||| ref Le Cabec and Maridonneau-Parini, [1995] ||| ref Nishida et al., [2005] ||| ...; conditions: cited from earlier work
Nox4 = tested on: Nox4; parameters: method as in Serrander et al., [2007]; conditions: ref Serrander et al., [2007]; cited from earlier work
[1] = target: NADPH oxidase (macrophage membrane liposomes, cytochrome b558) (Cavia porcellus, UniProt H0UXC6); type: biochemical, guinea pig
[2] = tested on: NADPH oxidase in intact phagocytes / neutrophils; parameters: method as in 3 sources, one per row (each row's own in cited_ref): ref Cohen and Chovaniec, [1978]; Yamashita et al., [1984] ||| ref Le Cabec and Maridonneau-Parini, [1995] ||| ref Tsunawaki et al., [2004]; conditions: cited from earlier work
p67^phox(1–212) [3] = assay: Effect of H2O2 on binding of p67phox(1–212) to Nox2 peptide 24; conditions: p67^phox(1–212) 1.5 μM, H2O2 10 mM required (0.1, 1, 10 mM tested), 2 h at 4°C; three experiments (Figure 2C)
Experimental: This assay was used to assess the binding of p67^phox, in solution, to surface-attached synthetic Nox2 peptides. The procedure is a modified version of that described before (Morozov et al., [1998]; Dahan et al., [2002]). A brief description of the procedure is presented here. Synthetic Nox2 peptides, with a biotin tag at either the N- or C-terminus, were diluted to a concentration of 1 μM in PBS supplemented with 1% casein. 200 μl/well volumes were added to streptavidin-coated 96 well plates (BioBind Assembly, streptavidin-coated, Cat. No. 95029263, Thermo Fisher Scientific) and the plates incubated for 1 h at room temperature, the well contents being mixed on an orbital shaker. […] Bound peroxidase was quantified as described for the protein—protein binding assay.
Figure 2 Treatment of p67^phox with N-ethylmaleimide (NEM), diamide, or H2O2 reverses the enhanced binding to Nox2 peptides containing an intramolecular disulfide bond. p67^phox(1–526) (1.5 μM) was incubated with NEM (0.1 mM) (A) or diamide (5 mM) (B), for 1 h at room temperature. p67^phox(1–212) (1.5 μM) was exposed to H2O2 (0.1, 1, or 10 mM) for 2 h at 4°C (C). […] The binding of treated and untreated p67^phox, in solution, to surface-attached Nox2 peptide 24 (357–371), with an N-terminal biotin tag, was measured. […]

[4] = target: NusA-Nox2(357–570) (human) (UniProt P04839); assay: SEC; FPLC gel filtration on HiLoad 16/60 Superdex 200 prep grade; separated a polymeric fraction from a homodimer fraction
PDI [5] = tested on: PDI; parameters: method as in 2 sources, one per row (each row's own in cited_ref): ref Gallina et al., [2002]; Raturi et al., [2005] ||| ref Dickerhof et al., [2011]; conditions: ref Dickerhof et al., [2011]; cited from earlier work
PDIA1 = conditions: ref Xu et al., [2012]; cited from earlier work
Description: Isomerization by PDI also requires the b′ domain (Ellgaard and Ruddock, [2005]) and, thus, an interact ...

PDI [6] = conditions: disulfide form; ref Kersteen and Raines, [2003]; Wang et al., [2011]; cited from earlier work
Description: Based on the resemblance of the CXC motif with the CXXC motif characteristic of the catalytic motifs of PDI and thioredoxin, we synthesized analogs of Nox2 peptide 24 ([…]) in which the CGC sequen ...

PDIA3 = tested on: PDIA3; parameters: method as in Jasuja et al., [2012]; conditions: ref Jasuja et al., [2012]; cited from earlier work
p67^phox(1–526) = target: T1, p67^phox(1–526) (UniProt P19878 1-526); assay: ELISA; peptide—protein binding of p67^phox to Nox2 peptide 28, told in the results without a figure (the introduction gives manuscripts in preparation); conditions: both partners purified
T1 construct: construct as in Mizrahi et al., 2010; also called full-length p67^phox; 6His-p67^phox; source: E. coli, purified (Nickel Sepharose); not shown: 6His, N-terminal, kept
T1 sequence (looked up): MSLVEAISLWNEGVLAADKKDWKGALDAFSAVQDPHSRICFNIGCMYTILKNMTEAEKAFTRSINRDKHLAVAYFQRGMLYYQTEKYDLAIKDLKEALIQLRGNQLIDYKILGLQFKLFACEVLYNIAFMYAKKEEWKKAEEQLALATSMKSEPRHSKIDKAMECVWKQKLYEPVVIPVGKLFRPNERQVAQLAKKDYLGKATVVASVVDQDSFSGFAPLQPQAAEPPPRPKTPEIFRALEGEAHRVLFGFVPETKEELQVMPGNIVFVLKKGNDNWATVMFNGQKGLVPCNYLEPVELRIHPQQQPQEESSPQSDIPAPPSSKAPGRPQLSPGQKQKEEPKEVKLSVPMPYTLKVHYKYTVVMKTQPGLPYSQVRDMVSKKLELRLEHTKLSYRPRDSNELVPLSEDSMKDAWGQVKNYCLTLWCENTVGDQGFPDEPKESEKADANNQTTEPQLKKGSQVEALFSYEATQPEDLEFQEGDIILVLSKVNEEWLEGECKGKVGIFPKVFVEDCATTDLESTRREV

p67^phox(1–212) [7] = target: T2, p67^phox(1–212) (UniProt P19878 1-212); assay: as above; conditions: both partners purified
T2 construct: contains four cysteines (40, 45, 121, 165); source: E. coli, purified (Nickel Sepharose); not shown: 6His, N-terminal, kept
T2 sequence (looked up): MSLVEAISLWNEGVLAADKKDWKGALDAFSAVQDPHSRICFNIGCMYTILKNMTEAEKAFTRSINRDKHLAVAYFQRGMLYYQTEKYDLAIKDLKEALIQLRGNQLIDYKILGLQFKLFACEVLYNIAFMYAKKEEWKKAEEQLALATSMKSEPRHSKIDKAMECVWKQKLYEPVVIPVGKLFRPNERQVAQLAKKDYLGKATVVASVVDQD

CN1C(=O)[C@]23CC4=CC=C[C@H](O)[C@H]4N2C(=O)[C@@]1(CO)SS3 [gliotoxin]
inhibition of oxidase activation in vitro (NADPH oxidase): marked inhibitory effect; also recorded: inhibit oxidase activation
effect on Nox4 (Nox4): did not affect
IC50, NADPH oxidase activation [1]: could not be determined
inhibition of oxidase activation, in words [1]: poor inhibitor
inhibition of oxidase activation in neutrophils [2]: inhibit oxidase activation

OO [H2O2]
effect of H2O2 treatment of p67phox on binding to peptide 24 in the disulfide form (p67^phox(1–212) [3]): markedly reduced
effect of exposure of phagocyte membranes on oxidase assembly (NADPH oxidase; without effect on the assembled complex, ref Ostuni et al., [2010]): inhibits oxidase assembly

NusA-Nox2(357–570) (from UniProt P04839 357-570) (domain or fragment)
stoichiometry N [4]: 2

bacitracin A
inhibitory potency on PDI (PDI [5]): low inhibitory potency

PACMA 31
specificity for PDIA1 (PDIA1): exquisite specificity
inhibition of oxidase activation, in words [1]: Lack of an inhibitory effect

RKCGC (disulfide) [small peptide RKCGC]
mimicry of the actions of PDI protein (PDI [6]): can mimic the actions of PDI protein

C[C@@H]1O[C@@H](OC[C@H]2O[C@@H](Oc3c(-c4ccc(O)c(O)c4)oc4cc(O)cc(O)c4c3=O)[C@H](O)[C@@H](O)[C@@H]2O)[C@H](O)[C@H](O)[C@H]1O [rutin]
inhibitory effect on PDIA3 (PDIA3): lack an inhibitory effect
inhibition of oxidase activation, in words [1]: Lack of an inhibitory effect

B1: Nox2 peptide 28 (369–383) with an intramolecular disulfide bond linking cysteines 369 and 371 (peptide)
peptide: Biotin-SGSGCGCDKQEFQDAWKLP-NH2
modifications: disulfide 5-7
SMILES: CC(C)C[C@H](NC(=O)[C@H](CCCCN)NC(=O)[C@H](Cc1c[nH]c2ccccc12)NC(=O)[C@H](C)NC(=O)[C@H](CC(=O)O)NC(=O)[C@H](CCC(N)=O)NC(=O)[C@H](Cc1ccccc1)NC(=O)[C@H](CCC(=O)O)NC(=O)[C@H](CCC(N)=O)NC(=O)[C@H](CCCCN)NC(=O)[C@H](CC(=O)O)NC(=O)[C@@H]1CSSC[C@H](NC(=O)CNC(=O)[C@H](CO)NC(=O)CNC(=O)[C@H](CO)NC(=O)CCCC[C@@H]2SC[C@@H]3NC(=O)N[C@@H]32)C(=O)NCC(=O)N1)C(=O)N1CCC[C@H]1C(N)=O
notes: spacer between the N-terminal biotin and the peptide, printed as Ser-Gly-Ser-Gly; also called peptide 28, disulfide form; source: synthetic peptide (Mimotopes or Bachem); not shown: biotin, N-terminal, kept
binding result (p67^phox(1–526)): binds
binding result (p67^phox(1–212) [7]): binds
